Data on 14 molecules can be found in PubChem BioAssay (NCI).

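Cultured in 96-well plates, cells were exposed to test compound for 48 hours across five concentrations. At the GI50, growth is halved. TGI: total growth inhibition.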

Test systems include NCI-H460 lung; SK-MEL-28 melanoma; SK-MEL-5 melanoma; HCC-2998 colon; NCI/ADR-RES ovarian; COLO 205 colon; HCT-15 colon; A549 NSCLC; M14 melanoma; NCI-H522 lung.
What all share (assay): NCI-60 cell line screen, 48 h

In the case of `CCCCCCCCCCCCCCCCCCN(C)CC(COP(=O)([O-])OCC[N+](C)(C)C)OC` (stereo unspecified), the TGI in the experiment on NCI-H460 lung was 12.2 µM; with SK-MEL-28 melanoma, 56.8 µM; with SK-MEL-5 melanoma it was 43.8 µM; with HCC-2998 colon it was 24.2 µM; in the experiment with NCI/ADR-RES ovarian, greater than 100 µM; with COLO 205 colon it was 8.47 µM. The TGI with HCT-15 colon is 23.5 µM; in the experiment on A549 NSCLC, 46.8 µM; with M14 melanoma, 29.6 µM; in the experiment on NCI-H522 lung it was 30.2 µM.
On to `Cc1cc(S(=O)(=O)Nc2nc3ccccc3c(=O)n2N)c(S)cc1Cl`, for which the TGI is greater than 100 µM in the experiment with NCI-H460 lung; greater than 100 µM in the experiment with SK-MEL-28 melanoma; greater than 100 µM in the experiment on SK-MEL-5 melanoma; greater than 100 µM in the experiment with HCC-2998 colon; 83.4 µM in the experiment on NCI/ADR-RES ovarian; greater than 100 µM in the experiment on COLO 205 colon. The TGI in the experiment with HCT-15 colon was greater than 100 µM; in the experiment on A549 NSCLC, greater than 100 µM; with M14 melanoma, greater than 100 µM; with NCI-H522 lung, 50.7 µM. Also, the GI50 with NCI-H522 lung was 19 µM.
As for `C=C(Br)CNC(=O)CCC(=O)NCC(=C)Br`, the TGI in the experiment on NCI-H460 lung, in the experiment with SK-MEL-28 melanoma, with SK-MEL-5 melanoma, with HCC-2998 colon, in the experiment on NCI/ADR-RES ovarian and with COLO 205 colon was greater than 100 µM each time. For the same molecule, the TGI with HCT-15 colon, with A549 NSCLC, in the experiment on M14 melanoma and with NCI-H522 lung was greater than 100 µM each time.
Take `C/C(=N\NC(=S)NCCCNC(=S)N/N=C(\C)c1ccccn1)c1ccccn1`: the TGI in the experiment with NCI-H460 lung was 10.1 µM; in the experiment with SK-MEL-28 melanoma, greater than 100 µM; with SK-MEL-5 melanoma, greater than 22 µM; in the experiment on HCC-2998 colon, greater than 59.1 µM; in the experiment on NCI/ADR-RES ovarian, 8.19 µM; with COLO 205 colon it was greater than 34.9 µM. Further, the TGI with HCT-15 colon was greater than 30.7 µM; with A549 NSCLC it was greater than 49.8 µM; in the experiment on M14 melanoma, 4.08 µM; with NCI-H522 lung, greater than 49.4 µM.
As to `Cc1ccc2c(c1)-c1nc(N)c(C#N)c(-c3ccccc3)c1CCS2(=O)=O`, the TGI in the experiment on NCI-H460 lung, in the experiment with SK-MEL-28 melanoma, with SK-MEL-5 melanoma, in the experiment on HCC-2998 colon, in the experiment with NCI/ADR-RES ovarian and in the experiment with COLO 205 colon was greater than 100 µM throughout. In addition, the TGI with HCT-15 colon, in the experiment with A549 NSCLC, with M14 melanoma and in the experiment with NCI-H522 lung was greater than 100 µM each time.
For `CC(C)/C(Cl)=N\OC(=O)Nc1cccc(Cl)c1`, the TGI was 18.6 µM in the experiment on NCI-H460 lung; 35.4 µM in the experiment with SK-MEL-28 melanoma; 26.6 µM in the experiment on SK-MEL-5 melanoma; 31.7 µM with HCC-2998 colon; greater than 57 µM with NCI/ADR-RES ovarian; 4.61 µM in the experiment with COLO 205 colon. The TGI in the experiment on HCT-15 colon turned out to be 31.3 µM; with A549 NSCLC, 35.7 µM; in the experiment on M14 melanoma it was 11 µM; with NCI-H522 lung, 3.33 µM.
For the molecule `N#Cc1cnc(N)nc1NCC1(CO)CC(CCc2ccccc2)C1` (stereo unspecified), the TGI in the experiment on NCI-H460 lung, in the experiment on SK-MEL-28 melanoma, with SK-MEL-5 melanoma, with HCC-2998 colon, in the experiment on NCI/ADR-RES ovarian and in the experiment with COLO 205 colon was greater than 100 µM each time. The TGI in the experiment on HCT-15 colon, in the experiment with A549 NSCLC, in the experiment on M14 melanoma and in the experiment with NCI-H522 lung was greater than 100 µM throughout.
Consider `O=[N+]([O-])c1cc(-c2nc(-c3ccccc3)c(-c3ccccc3)[nH]2)c(O)c([N+](=O)[O-])c1`, for which the TGI in the experiment with NCI-H460 lung is 48.3 µM; with SK-MEL-28 melanoma, greater than 100 µM; with SK-MEL-5 melanoma, 36 µM; in the experiment with HCC-2998 colon, 30.8 µM; with NCI/ADR-RES ovarian, 56.7 µM; in the experiment with COLO 205 colon, 45.1 µM. The TGI in the experiment with HCT-15 colon is 33.6 µM; in the experiment with A549 NSCLC, greater than 100 µM; with M14 melanoma it was 46.4 µM; in the experiment on NCI-H522 lung it was 63.7 µM.
On to `COc1ccc2c(c1)CCc1c-2n(CCN2CCCCC2)c2ccc(OC)cc12`, for which the TGI with NCI-H460 lung, with SK-MEL-28 melanoma, with SK-MEL-5 melanoma, with HCC-2998 colon, in the experiment on NCI/ADR-RES ovarian and in the experiment on COLO 205 colon was greater than 100 µM in each case. Moreover, the TGI with HCT-15 colon, in the experiment on A549 NSCLC, in the experiment with M14 melanoma and in the experiment with NCI-H522 lung was greater than 100 µM throughout.
Take `O=c1/c(=C/c2ccc(-c3ccc(Cl)cc3Cl)o2)sc2n1[C@@H](c1ccc(Cl)cc1)C=C(c1cc(F)c(Cl)cc1Cl)N=2`: the TGI with NCI-H460 lung is greater than 100 µM; in the experiment on SK-MEL-28 melanoma it was greater than 100 µM; with SK-MEL-5 melanoma, greater than 100 µM; in the experiment with HCC-2998 colon it was 56.2 µM; with NCI/ADR-RES ovarian, greater than 100 µM; in the experiment with COLO 205 colon it was greater than 100 µM. Further, the TGI in the experiment on HCT-15 colon, with A549 NSCLC, with M14 melanoma and in the experiment with NCI-H522 lung was greater than 100 µM each time.
Consider `CC(=O)C1CC[C@@H]2[C@H](CC[C@]3(C)[C@@H](O)CC[C@@H]23)[C@H]1C(=O)O` (stereo partly specified), for which the TGI in the experiment with NCI-H460 lung, with SK-MEL-28 melanoma, in the experiment on SK-MEL-5 melanoma, in the experiment on HCC-2998 colon, in the experiment on NCI/ADR-RES ovarian and with COLO 205 colon was greater than 100 µM throughout. For the same molecule, the TGI in the experiment with HCT-15 colon, in the experiment with A549 NSCLC, with M14 melanoma and in the experiment with NCI-H522 lung was greater than 100 µM each time.
Regarding `CCOC(=O)C(SCCO)C(C(=O)OCC)n1ccc(=O)[nH]c1=O` (stereo unspecified), the TGI is greater than 100 µM in the experiment on NCI-H460 lung; greater than 86.7 µM with SK-MEL-28 melanoma; greater than 100 µM in the experiment on SK-MEL-5 melanoma; greater than 100 µM in the experiment with HCC-2998 colon; greater than 69.4 µM in the experiment with NCI/ADR-RES ovarian; greater than 59.3 µM in the experiment with COLO 205 colon. Moreover, the TGI was greater than 57.5 µM in the experiment on HCT-15 colon, greater than 100 µM in the experiment with A549 NSCLC, greater than 90.5 µM in the experiment on M14 melanoma and 22.7 µM in the experiment with NCI-H522 lung.
As to `CC(=O)c1cc2ccccc2oc1=O`, the TGI in the experiment with NCI-H460 lung, in the experiment on SK-MEL-28 melanoma, in the experiment with SK-MEL-5 melanoma, in the experiment on HCC-2998 colon, with NCI/ADR-RES ovarian and with COLO 205 colon was greater than 100 µM throughout. Moreover, the TGI with HCT-15 colon, with A549 NSCLC, in the experiment on M14 melanoma and in the experiment on NCI-H522 lung was greater than 100 µM in each case.
Turning to `N#Cc1ccc(-n2c3ccccc3c3ccc4c(c32)C(=O)C=CC4=O)cc1`, the TGI in the experiment on NCI-H460 lung is 44.2 µM; with SK-MEL-28 melanoma, 13.1 µM; with SK-MEL-5 melanoma, 12.2 µM; in the experiment on HCC-2998 colon, 18.3 µM; in the experiment with NCI/ADR-RES ovarian, 53.9 µM; with COLO 205 colon, 10.5 µM. The TGI is 16.1 µM in the experiment on HCT-15 colon, 38.4 µM with A549 NSCLC, 7.57 µM with M14 melanoma and 1.19 µM with NCI-H522 lung.
